Values quoted from earlier work as cited in patent US9072314B2, “Carotenoid-containing compositions and methods” (Mead Johnson Nutrition Company, priority 2007, dated 2015).

Experiments:
[1] = tested on: H. pylori strains; conditions: strains in Japanese children, cited study

Row | SMILES | H. pylori strains tested that were resistant [1] [%] | antioxidant capacity relative to Vitamin E (versus Vitamin E) | antioxidant capacity relative to beta-carotene (versus beta-carotene) [times]
1 | CC[C@H]1OC(=O)[C@H](C)[C@@H](O[C@H]2C[C@@](C)(OC)[C@@H](O)[C@H](C)O2)[C@H](C)[C@@H](O[C@@H]2O[C@H](C)C[C@H](N(C)C)[C@H]2O)[C@](C)(OC)C[C@@H](C)C(=O)[C@H](C)[C@@H](O)[C@]1(C)O [clarithromycin] | 29 | – | –
2 | Cc1ncc([N+](=O)[O-])n1CCO [metronidazole] | 24 | – | –
3 | CC1=C(/C=C/C(C)=C/C=C/C(C)=C/C=C/C=C(C)/C=C/C=C(C)/C=C/C2=C(C)C(=O)C(O)CC2(C)C)C(C)(C)CC(O)C1=O (stereo not shown) [Astaxanthin, astaxanthin] | – | 100-500 times | 10
